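Tested at 5 concentrations; 48 h exposure; 96-well plates; endpoints linearly interpolated, else capped at highest concentration. TGI denotes the concentration required for complete inhibition of growth.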
Key:
Experiment in all cases: NCI anticancer screen, dose series, 48 h
[1] = system: UACC-62 melanoma
[2] = system: SF-539 CNS
[3] = system: EKVX NSCLC
[4] = system: SK-MEL-28 melanoma
[5] = system: DMS 273 small cell lung
[6] = system: SK-MEL-2 melanoma
[7] = system: ACHN renal
[8] = system: NCI-H460 lung
[9] = system: K-562 leukemia
[10] = system: IGROV1 ovarian
[11] = system: HOP-18 NSCLC
[12] = system: HL-60(TB) leukemia
[13] = system: HT29 colon
[14] = system: SW-620 colon
[15] = system: A498 renal
[16] = system: SK-MEL-5 melanoma
[17] = system: M19-MEL melanoma
[18] = system: 786-0 renal
[19] = system: CCRF-CEM leukemia
[20] = system: HCT-15 colon
[21] = system: MOLT-4 leukemia
[22] = system: RPMI-8226 leukemia
[23] = system: SF-268 CNS
[24] = system: LOX IMVI melanoma
[25] = system: HOP-62 NSCLC
[26] = system: SNB-75 CNS
[27] = system: HOP-92 NSCLC
[28] = system: A549 NSCLC
[29] = system: NCI-H522 lung
[30] = system: COLO 205 colon
[31] = system: DLD-1 colon
[32] = system: HCC-2998 colon
[33] = system: KM20L2 colon
[34] = system: SK-OV-3 ovarian
[35] = system: SNB-78 CNS
[36] = system: TK-10 renal
[37] = system: SF-295 CNS
[38] = system: UACC-257 melanoma
[39] = system: MALME-3M melanoma
[40] = system: UO-31 renal
[41] = system: OVCAR-3 ovarian
[42] = system: SNB-19 CNS
[43] = system: CAKI-1 renal
[44] = system: OVCAR-8 ovarian
[45] = system: RXF-631 renal
[46] = system: U251 CNS
[47] = system: KM12 colon
[48] = system: SN12C renal
[49] = system: OVCAR-5 ovarian
[50] = system: RXF 393 renal
[51] = system: NCI-H23 lung
[52] = system: LXFL 529 NSCLC
[53] = system: XF 498 CNS
[54] = system: HCT-116 colon
[55] = system: SR leukemia
[56] = system: DMS 114 small cell lung
[57] = system: NCI-H226 lung
[58] = system: OVCAR-4 ovarian
[59] = system: M14 melanoma

Measured: TGI

Cc1nc(-n2nc(-c3ccccc3)cc2-c2ccccc2)sc1C(=O)/C=C/c1ccccc1
89.7 µM: [26]
not listed: [52] | [53] | [54] | [55] | [56] | [57] | [58] | [59]
> 100 µM: all other assays above

O=CC1=CCC2c3[nH]c4ccccc4c3CCN2C1 (stereo not given)
385 µM: [57]
> 39.6 µM: [25]
248 µM: [4]
267 µM: [6]
273 µM: [13]
314 µM: [41]
137 µM: [52]
153 µM: [47]
206 µM: [17]
213 µM: [53]
156 µM: [20]
226 µM: [31]
195 µM: [46]
347 µM: [38]
253 µM: [32]
326 µM: [37]
320 µM: [51]
126 µM: [54]
111 µM: [24]
266 µM: [56]
212 µM: [5]
not listed: [15] | [26] | [35] | [40] | [45] | [58] | [59]
> 396 µM: all other assays above

CN(C)c1ccc(O[Si](Oc2ccc(N(C)C)cc2)(Oc2ccc(N(C)C)cc2)Oc2ccc(N(C)C)cc2)cc1
not listed: [5] | [6] | [8] | [20] | [35] | [45] | [50]
> 100 µM: all other assays above

Reference: PubChem BioAssay (NCI)
